From US8232269B2, “Amide compounds useful in therapy” (Pfizer Inc., priority 2008, dated 2012)

What follows are compounds tested against T1, Progesterone Receptor (PR) (Homo sapiens, UniProt P06401) (assay: In vitro functional assay for progesterone receptor (PR) antagonists: inhibition of progesterone-induced alkaline phosphatase expression in T47D cells). Details: antagonist format, 5 nM progesterone, Ki calculated from IC50 with the Cheng-Prusoff equation.
T1 construct: endogenous in cells; host or cells: T47D human breast mammary carcinoma cells
T1 sequence (P06401 1-933): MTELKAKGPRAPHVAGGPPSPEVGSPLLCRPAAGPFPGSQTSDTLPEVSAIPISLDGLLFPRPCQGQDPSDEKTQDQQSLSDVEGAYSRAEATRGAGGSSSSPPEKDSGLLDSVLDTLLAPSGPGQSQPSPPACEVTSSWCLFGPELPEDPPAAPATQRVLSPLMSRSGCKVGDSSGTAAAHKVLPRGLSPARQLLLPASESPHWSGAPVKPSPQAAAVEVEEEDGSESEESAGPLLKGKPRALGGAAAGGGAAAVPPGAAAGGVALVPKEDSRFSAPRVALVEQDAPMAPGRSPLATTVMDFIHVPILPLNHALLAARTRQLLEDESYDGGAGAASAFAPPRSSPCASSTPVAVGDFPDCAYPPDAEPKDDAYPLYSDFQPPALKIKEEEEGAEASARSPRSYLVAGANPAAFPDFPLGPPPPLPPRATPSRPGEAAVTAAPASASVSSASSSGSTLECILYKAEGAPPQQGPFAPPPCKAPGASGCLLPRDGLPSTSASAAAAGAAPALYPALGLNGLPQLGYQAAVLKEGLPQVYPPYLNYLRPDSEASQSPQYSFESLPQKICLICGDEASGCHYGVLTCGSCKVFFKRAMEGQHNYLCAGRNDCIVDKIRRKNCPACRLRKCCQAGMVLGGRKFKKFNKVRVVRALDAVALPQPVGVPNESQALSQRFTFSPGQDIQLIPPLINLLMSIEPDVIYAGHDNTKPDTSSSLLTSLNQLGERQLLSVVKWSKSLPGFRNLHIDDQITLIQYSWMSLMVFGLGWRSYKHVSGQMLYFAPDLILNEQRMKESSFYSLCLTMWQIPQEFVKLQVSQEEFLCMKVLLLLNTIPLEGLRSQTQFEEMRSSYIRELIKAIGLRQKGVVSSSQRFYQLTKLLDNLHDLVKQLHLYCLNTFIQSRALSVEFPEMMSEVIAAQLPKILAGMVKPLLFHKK
Format: cell-based
Excerpt: 1.0 In vitro Functional Assay for Progesterone Receptor (PR) Antagonists, Agonists and Modulators
The assay for PR antagonism takes advantage of the extensively reported modulation of alkaline phosphatase (AP) expression in human breast T47D mammary carcinoma cells {Beck et al., D. P. (1993). The progesterone antagonist RU486 acquires agonist activity upon stimulation of cAMP signalling pathways. Proc Natl Acad Sci USA 90, 4441-4445; Fensome et al. (2002). New progesterone receptor antagonists: 3,3-disubstituted-5-aryloxindoles. Bioorg Med Chem Lett 12, 3487-3490; Zhang et al., (2002a). 6-Aryl-1,4-dihydro-benzo d1,3oxazin-2-ones: a novel class of potent, selective, and orally active nonsteroidal progesterone receptor antagonists. Journal of Medicinal Chemistry 45, 4379-4382; Zhang et al., (2003). Novel 6-aryl-1,4-dihydrobenzo d oxazine-2-thiones as potent, selective, and orally active nonsteroidal progesterone receptor agonists. Bioorganic & Medicinal Chemistry Letters 13, 1313-1316; Zhang et al., (2002b). Potent nonsteroidal progesterone receptor agonists: synthesis and SAR study of 6-aryl benzoxazines. Bioorganic & Medicinal Chemistry Letters 12, 787-790; Zhang, Z. et al., (2000). In vitro characterization of trimegestone: a new potent and selective progestin. Steroids 65, 637-643}. […] In the absence of progesterone any agonist activity is also observed as an induction of AP activity. By running the assay in two formats (+/−progesterone (P4)), compounds behaving as PR antagonists, agonists, partial agonists or modulators with mixed agonist/antagonist activity can be identified.
Briefly, T47D cells are grown by propagating in DMEM with phenol red+10% FCS+2 mM Glutamine at 37° C./5% CO2. At 70-80% confluence, the media is exchanged for phenol red free DMEM+5% CS-FCS (Assay media). Cells are incubated overnight in assay media then harvested and frozen in assay media containing 10% DMSO at 1.5e7 cells/mL in 2 mL aliquots using a Planer and immediately stored in liquid nitrogen. Vials are removed from liquid nitrogen storage and immediately thawed in a water bath at 37° C. The cell suspension is added dropwise to 20 mL of assay media, then the tube centrifuged at 1000 rpm for 4 minutes, the supernatant is discarded and the pellet re-suspended in 20 mL assay media. T47D cells are then plated at 8750 cells/well in 35 μL assay media in sufficient white solid 384 well TC plates for the assay. For the agonist format assay a further 10 μL of assay media is added to each well. These plates are then cultured for 3-6 hours at 37° C./5% CO2 before compound addition.
Test substances are prepared by in 100% DMSO, half log concentrations from 4 mM in 384 well plates 5 μL/well (referred to here as ‘grandmother plates’). Progesterone is 100 μM made up in ethanol and PBS (i.e. add 1 mL ethanol to progesterone initially to help dissolving) and stored in 0.5-1 mL aliquots at −20° C.
Using a multidrop (Thermolabsystems), 60 μL/well of buffer is added to a 384 well plate—this will be the ‘mother plate’. _Add 45 μL well buffer to grandmother plate using the multidrop (=400 μM 10% DMSO dilution). Mixed and spun to remove air bubbles. • 20 μL is taken from the grandmother plate (400 μM 10% DMSO) and added to the mother plate (=100 μM 2.5% DMSO). Mixed and spun to remove air bubbles Preparation of Max/Min:
Antagonist Min: (Checker Pattern on Plate Map) 1 μM RU-486 (FAC 0.1 μM) • 50 μL of 0.2 mM RU-486 • 10 mL Diluent Addition of Test Substance to Cell Plates • The PlateMate Plus was used to add 5 μL MAX/MIN to cell plates • Then 5 μL test substances are added from the mother plate (after removing max/min PlateMate tips: columns 1 and 24)
Addition of Agonist (5 nM Progesterone FAC) for Antagonist Format Only
25 nM progesterone in assay media is prepared from 100 μM stock (12.5 μL progesterone/50 mL media), from which 10 μL per well is transferred to the assay plate using the PlateMate Plus (already containing cells & compound). […]

| Ki | Compound |
| --- | --- |
| 5.27 nM | CC(C)n1nc(-c2ccc(C#N)cc2)c(C2CC2)c1C(=O)NCC(F)(F)F [Example 48, 3-(4-Cyanophenyl)-4-cyclopropyl-1-isopropyl-N-(2,2,2-trifluoroethyl)-1H-pyrazole-5-carboxamide] |
| 27.3 nM | CCNC(=O)CNC(=O)c1c(C2CC2)c(-c2ccc(C#N)cc2)nn1C(C)C [Example 42, 3-(4-Cyanophenyl)-4-cyclopropyl-N-[2-(ethylamino)-2-oxoethyl]-1-isopropyl-1H-pyrazole-5-carboxamide] |
| 13.8 nM | CC(C)n1nc(-c2ccc(C#N)cc2)c(C2CC2)c1C(=O)NC[C@@H]1CCCO1 [Example 55, 3-(4-Cyanophenyl)-4-cyclopropyl-1-isopropyl-N-[(2S)-tetrahydrofuran-2-ylmethyl]-1H-pyrazole-5-carboxamide] |
| 86.1 nM | CC(C)n1nc(-c2ccc(C#N)cc2)c(C2CC2)c1C(=O)NCCCN1CCCC1=O [Example 26, 3-(4-Cyanophenyl)-4-cyclopropyl-1-isopropyl-N-[3-(2-oxopyrrolidin-1-yl)propyl]-1H-pyrazole-5-carboxamide] |
| 13.2 nM | CC(C)n1nc(-c2ccc(C#N)cc2)c(Cl)c1C(=O)NC[C@H](C)O [Example 129] |
| 7.84 nM | COCCNC(=O)c1c(C2CC2)c(-c2ccc(C#N)cc2)nn1C(C)C [Example 59, 3-(4-Cyanophenyl)-4-cyclopropyl-1-isopropyl-N-(2-methoxyethyl)-1H-pyrazole-5-carboxamide] |
| 23.1 nM | CCc1c(-c2ccc(C#N)cc2)nn(C(C)C)c1C(=O)NC1CC1 [Example 111, 3-(4-Cyanophenyl)-N-cyclopropyl-4-ethyl-1-isopropyl-1H-pyrazole-5-carboxamide] |
| 14.8 nM | CCc1c(-c2ccc(C#N)cc2)nn(C(C)CC)c1C(=O)NCC(C)(C)O (stereo not drawn) [Example 130] |
| 12.7 nM | CCNC(=O)c1c(CC)c(-c2ccc(C#N)cc2)nn1C(C)CC (racemic) [Example 103, (+/−)-1-sec-Butyl-3-(4-cyanophenyl)-N,4-diethyl-1H-pyrazole-5-carboxamide] |
| 6.24 nM | Cc1cc(-c2nn(C(C)C)c(C(=O)NC[C@H](C)O)c2C)ccc1C#N [Example 63, 3-(4-Cyano-3-methylphenyl)-N-[(2S)-2-hydroxypropyl]-1-isopropyl-4-methyl-1H-pyrazole-5-carboxamide] |
| 38.2 nM | CC(C)n1nc(-c2ccc(C#N)cc2)c(C2CC2)c1C(=O)NC1CN(S(C)(=O)=O)C1 [Example 18, 3-(4-Cyanophenyl)-4-cyclopropyl-1-isopropyl-N-[1-(methylsulfonyl)azetidin-3-yl]-1H-pyrazole-5-carboxamide] |
| 14.7 nM | CCc1c(-c2ccc(C#N)cc2)nn(C(C)CC)c1C(=O)NC(C)C (racemic) [Example 102, (+/−)-1-sec-Butyl-3-(4-cyanophenyl)-4-ethyl-N-isopropyl-1H-pyrazole-5-carboxamide] |
| 3.55 nM | CCNC(=O)c1c(C)c(-c2ccc(C#N)c(C)c2)nn1C(C)C [Example 65, 3-(4-Cyano-3-methylphenyl)-N-ethyl-1-isopropyl-4-methyl-1H-pyrazole-5-carboxamide] |
| 7.92 nM | CC(C)n1nc(-c2ccc(C#N)cc2)c(C2CC2)c1C(=O)N[C@@H]1CCN(C(=O)OC(C)(C)C)C1 [Example 5, tert-Butyl (3R)-3-({[3-(4-cyanophenyl)-4-cyclopropyl-1-isopropyl-1H-pyrazol-5-yl]carbonyl}amino)-pyrrolidine-1-carboxylate] |
| 25 nM | CC(C)n1nc(-c2ccc(C#N)cc2)c(C2CC2)c1C(=O)NC1CCC(=O)N(C)C1 (racemic) [Example 41, (+/−)-3-(4-Cyanophenyl)-4-cyclopropyl-1-isopropyl-N-(1-methyl-6-oxopiperidin-3-yl)-1H-pyrazole-5-carboxamide] |
| 8.24 nM | CCc1c(-c2ccc(C#N)cc2)nn(C(C)C)c1C(=O)NCC1CC1 [Example 110, 3-(4-Cyanophenyl)-N-(cyclopropylmethyl)-4-ethyl-1-isopropyl-1H-pyrazole-5-carboxamide] |
| 12 nM | CC(C)n1nc(-c2ccc(C#N)cc2)c(C2CC2)c1C(=O)NCC1CCCO1 (racemic) [Example 36, (+/−)-3-(4-Cyanophenyl)-4-cyclopropyl-1-isopropyl-N-(tetrahydrofuran-2-ylmethyl)-1H-pyrazole-5-carboxamide] |
| 8.66 nM | CNC(=O)CNC(=O)c1c(C2CC2)c(-c2ccc(C#N)c(C)c2)nn1C(C)C [Example 120, 3-(4-Cyano-3-methylphenyl)-4-cyclopropyl-1-isopropyl-N-[2-(methylamino)-2-oxoethyl]-1H-pyrazole-5-carboxamide] |
| 8.27 nM | COCCCNC(=O)c1c(C2CC2)c(-c2ccc(C#N)cc2)nn1C(C)C [Example 21, 3-(4-Cyanophenyl)-4-cyclopropyl-1-isopropyl-N-(3-methoxypropyl)-1H-pyrazole-5-carboxamide] |
| 19.3 nM | CC(C)n1nc(-c2ccc(C#N)cc2)c(C#N)c1C(=O)NC[C@@H](C)O [Example 133] |
| 104 nM | CC(C)n1nc(-c2ccc(C#N)cc2)c(C2CC2)c1C(=O)NC1CNC(=O)C1 (racemic) [Example 45, (+/−)-3-(4-Cyanophenyl)-4-cyclopropyl-1-isopropyl-N-[(3R)-5-oxopyrrolidin-3-yl]-1H-pyrazole-5-carboxamide] |
| 70.2 nM | Cc1c(-c2ccc(C#N)cc2)nn(C2CC2)c1C(=O)NCC1CC1 [Example 82, 3-(4-Cyanophenyl)-1-cyclopropyl-N-(cyclopropylmethyl)-4-methyl-1H-pyrazole-5-carboxamide] |
| 61.2 nM | CNC(=O)c1c(C)c(-c2ccc(C#N)cc2)nn1C1CC1 [Example 81, 3-(4-Cyanophenyl)-1-cyclopropyl-N,4-dimethyl-1H-pyrazole-5-carboxamide] |
| 4.94 nM | CC(C)n1nc(-c2ccc(C#N)cc2)c(C2CC2)c1C(=O)NCC1CC1 [Example 49, 3-(4-Cyanophenyl)-4-cyclopropyl-N-(cyclopropylmethyl)-1-isopropyl-1H-pyrazole-5-carboxamide] |
